{
  "source": "patent US6630075B2",
  "about": "“Use of fluorinated ketones in fire extinguishing compositions” (3M Innovative Properties Company, priority 1999, dated 2003)",
  "key": {"[1]": {"test": "Micro-Cup Burner Test (extinguishing concentration; Mass Ratio Calculation vs HALON 1211)", "text": "The Micro-Cup Burner Test is a laboratory test which measures the extinguishing ability of an agent based on the quantity of agent required to extinguish a fire under the following test conditions. The Micro-Cup Burner Test utilizes a quartz concentric-tube laminar-diffusion flame burner (micro-cup burner, of similar design to the above-described cup apparatus) aligned vertically with all flows upward. A fuel, typically propane unless otherwise specified, flows at 10.0 sccm (standard cubic centimeters per minute) through a 5-mm I.D. inner quartz tube which is centered in a 15-mm I.D. quartz chimney. The chimney extends 4.5 cm above the inner tube. Air flows through the annular region between the inner tube and the chimney at 1000 sccm. Prior to the addition of extinguishing composition, a visually stable flame is supported on top of the inner tube, and the resulting combustion products flow out through the chimney. An extinguishing composition to be evaluated is introduced into the air stream upstream of the burner. Liquid compositions are introduced by a syringe pump (which is calibrated to within 1%) and are volatilized in a heated trap. Gaseous compositions are introduced via a mass-flow controller to the air stream upstream from the burner. For consistency, the air-gaseous composition mixture then flows through the heated trap prior to its introduction to the flame burner. All gas flows are maintained by electronic mass-flow controllers which are calibrated to within 2%. The fuel is ignited to produce a flame and is allowed to burn for 90 seconds. After 90 seconds, a specific flow rate of composition is introduced, and the time required for the flame to be extinguished is recorded. The reported extinguishing concentrations are the recorded volume % of extinguishing composition in air required to extinguish the flame within an average time of 30 seconds or less.\nThe above-mentioned cup burner test measures the performance of an extinguishing composition by determining the minimum volume percent of composition in air required to extinguish a test fire. However, it is often desirable to directly compare the fire performance of an experimental extinguishing composition (e.g., a fluorinated ketone) against the performance of a state-of-the-art extinguishing composition, such as HALON™ 1211 fire extinguishing agent (CF2ClBr, a bromochlorofluorocarbon). One way to make such a comparison is to derive the mass ratio of experimental composition to HALON™ 1211 fire extinguishing agent from the volume percentages of each composition required for extinguishing. The mass ratio can be calculated by dividing the experimental composition's extinguishing volume percent by the HALON™ 1211 agent's extinguishing volume percent and multiplying the resulting quotient (which, according to the ideal gas law, also represents the ratio of mole percents) times the weight average molecular weight of the experimental composition divided by the molecular weight of HALON™ 1211 agent (165 g/mole).\nIn Comparative Example C1, the extinguishing concentration (volume % in air) of HALON™ 1211 fire extinguishing agent was determined as using the Micro-Cup Burner Test.\nIn Examples 1-16, the extinguishing concentration of several perfluorinated ketones was also determined using the Micro-Cup Burner Test. The mass ratio as compared to HALON™ 1211 fire extinguishing agent was then calculated using the Mass Ratio Calculation.\nIn Comparative Examples C2-C11, various fluorinated extinguishing compositions known in the art (hydrofluorocarbons, perfluorocarbons, hydrochlorofluorocarbons, hydrofluoroethers, and iodofluorocarbons) were evaluated for their extinguishing concentration, and subsequently their mass ratios were calculated with respect to HALON™ 1211 agent. […]"}, "[2]": {"test": "total flooding evaluation in 1.28 m^3 enclosure (Ohmic Heating Test procedure)", "conditions": "1000 g agent, nitrogen 50 psi", "text": "This example was run to evaluate the fire performance of a fluorinated ketone of this invention, CF3CF2C(O)CF(CF3)2 (the fluorinated ketone as prepared in Example 1), in a total flooding evaluation for a clean extinguishing agent.\nFor this evaluation, a 1.28 m^3 (0.915 m×0.915 m×1.525 m) steel reinforced polycarbonate “box” enclosure was used, into which a fixed piping system, normally designed to deliver a gaseous clean extinguishing agent, was filled instead with a composition that is liquid at room temperature and discharged into the “box” to extinguish a fire. Using this modified system and procedure, the liquid fluorinated ketone used, CF3CF2C(O)CF(CF3)2, could be discharged into the enclosure indirectly in the same manner as could a gaseous clean extinguishing agent and thus allow the liquid agent to extinguish an obstructed fire located remotely in the enclosure.\nIn this modified procedure, a Swagelok Whitey 2000 mL cylinder was filled with 1000 g of CF3CF2C(O)CF(CF3)2 and was super-pressurized with nitrogen to 50 psi (345 kPa). Attached to the bottom of the cylinder was a 0.25 in (0.6 cm) Swagelok Whitey SS1RFA-A stainless steel angle valve, to which was fixed 34 in (86.4 cm) of nominal 0.25 in (6.5 mm) piping arrangement, including a 0.25 in (6.5 mm) Jamesbury Clincher ¼-turn ball valve. The piping was connected to a Bete NF 0500 square edge orifice nozzle. […]"}, "[3]": {"system": "mice", "test": "short term inhalation tests with mice", "type": "in vivo", "conditions": "mice exposed for four hours at 50,000 ppm in air"}, "[4]": {"test": "manual suppression full-scale streaming test, UL Standard 711 pan fires", "conditions": "heptane, 60 sec pre-burn", "text": "These two examples were run to illustrate the fire performance of a fluorinated ketone of this invention, CF3CF2C(O)CF(CF3)2 (the fluorinated ketone as prepared in Example 1), using a manual suppression full-scale streaming test for a clean extinguishing agent.\nFor each example, a standard off-the-shelf Amerex 131b HALON™ 1211 handheld extinguisher was used to introduce the extinguishing composition to the fire. The extinguisher was equipped with a standard ½ in (1.3 cm) nominal diameter rubber hose with a clean extinguishing agent nozzle attached to the end. In each case, the composition was super-pressurized using dry nitrogen at 130-150 psi (900-1040 kPa).\nBoth fire extinguishing tests were run following essentially the same test procedures and conditions as outlined in UL Standard 711 for the 2B and 5B pan fire scenarios, as normally conducted for UL approval at Underwriters Laboratories, Inc., Northbrook, Ill. The only deviation from that test procedure was that the fire tests for these examples were conducted outside. The fire test pans for the respective fires were sized to be 2.5 times larger than the ultimate extinguisher rating. For example, a 2B UL-rated extinguisher rating requires a skilled firefighter to be able to extinguish a 5 ft^2 (0.46 m^2) fire, a 5B UL-rated extinguisher rating requires extinguishing a 12.5 ft^2(1.16 m^2) fire, etc. For both examples, the UL specified pans were 12 in (30 cm) deep, into which was introduced 4.0 in (10 cm) of water, onto which was introduced 2 in (5 cm) of commercial grade heptane for fuel, leaving a 6 in (15 cm) freeboard above the fuel surface. Each fire was allowed to pre-burn 60 seconds before extinguishing commenced, using an agent flow rate of 0.75-0.80 kg/sec. The discharge time for the extinguishing of the fire was recorded as was the amount of agent discharged."}},
  "data": [
    {"smiles": "O=C(C(F)(F)C(F)(F)F)C(F)(C(F)(F)F)C(F)(F)F", "note": "[Example 1, 1,1,1,2,4,4,5,5,5-nonafluoro-2-trifluoromethyl-butan-3-one]", "values": [
      {"measurement": "Mass Ratio to HALON™ 1211", "setting": "[1]; calculated from extinguishing volume % and molecular weight relative to HALON 1211 (165 g/mole)", "result": 1.86},
      {"measurement": "Ext. Conc. (vol %)", "setting": "[1]; volume % in air required to extinguish the flame within an average time of 30 seconds or less, propane fuel", "result": 3.5, "unit": "vol %"},
      {"measurement": "time to extinguishing of the obstructed fire from the beginning of agent discharge", "setting": "[2]", "result": "≤ 35", "unit": "s"},
      {"measurement": "acute toxicity", "setting": "[3]", "result": "low acute toxicity"},
      {"measurement": "Agent Discharged", "setting": "[4]; UL 2B pan", "result": 2.59, "unit": "kg"},
      {"measurement": "Discharge Time", "setting": "[4]; UL 2B pan", "result": 3.5, "unit": "s"},
      {"measurement": "Agent Discharged", "setting": "[4]; UL 5B pan", "result": 2.87, "unit": "kg"},
      {"measurement": "Discharge Time", "setting": "[4]; UL 5B pan", "result": 3.8, "unit": "s"}
    ]}
  ]
}
